Results published in ChEMBL document CHEMBL1201862, “PubChem BioAssay data set” (2004).
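1) Cells in 96-well plates. 2) Compound, 48 h, 5 concentrations. 3) Linear interpolation between surrounding doses. 4) Unreached endpoint = highest concentration. GI50 marks 50% less growth.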 Active and inactive are the calls of the source. No stated cut-off is given here; in the data, active = GI50 up to about 1.1 µM and inactive = higher.

Legend:
Assay in all cases: inhibition of tumour cell growth, NCI panel, 48 h
RXF 393 = tested on: RXF 393
SN12C = tested on: SN12C
MDA-N = tested on: MDA-N
UACC-62 = tested on: UACC-62
CAKI-1 = tested on: CAKI-1
SNB-19 = tested on: SNB-19
786-0 = tested on: 786-0
MDA-MB-435 = tested on: MDA-MB-435
UACC-257 = tested on: UACC-257
K562 = tested on: K562
KM12 = tested on: KM12
MOLT-4 = tested on: MOLT-4
SF-268 = tested on: SF-268
PC-3 = tested on: PC-3
Hs-578T = tested on: Hs-578T
A549 = tested on: A549
RPMI-8226 = tested on: RPMI-8226
SK-MEL-5 = tested on: SK-MEL-5
NCI/ADR-RES = tested on: NCI/ADR-RES
LXFL 529 = tested on: LXFL 529

Compound | GI50 (RXF 393) | GI50 (SN12C) | GI50 (MDA-N) | GI50 (UACC-62) | GI50 (CAKI-1) | GI50 (SNB-19) | GI50 (786-0) | GI50 (MDA-MB-435) | GI50 (UACC-257) | GI50 (K562) | GI50 (KM12) | GI50 (MOLT-4) | GI50 (SF-268) | GI50 (PC-3) | GI50 (Hs-578T) | GI50 (A549) | GI50 (RPMI-8226) | GI50 (SK-MEL-5) | GI50 (NCI/ADR-RES) | GI50 (LXFL 529)
C=CCOC(=O)/C(=C\c1ccc(OC)c(OC)c1)c1ccc(OC)c(OC)c1 | 27.9 µM (inactive) | > 100 µM (inactive) | 60.7 µM (inactive) | 38.5 µM (inactive) | 62.2 µM (inactive) | 59 µM (inactive) | 71.3 µM (inactive) | 56 µM (inactive) | 57.5 µM (inactive) | 57.8 µM (inactive) | 42.4 µM (inactive) | 15.6 µM (inactive) | 52.7 µM (inactive) | 33.1 µM (inactive) | 39.1 µM (inactive) | 61.7 µM (inactive) | 13.4 µM (inactive) | 42.3 µM (inactive) | 40.6 µM (inactive) | –
O=[N+]([O-])c1ccc2nc3ccscc-3c2c1 | – | – | – | 21.4 µM (inactive) | 13 µM (inactive) | 6.98 µM (inactive) | 19.5 µM (inactive) | – | 14.3 µM (inactive) | 4.6 µM (inactive) | 7.52 µM (inactive) | 5.87 µM (inactive) | 14.7 µM (inactive) | – | – | 18.3 µM (inactive) | 7.08 µM (inactive) | 7.31 µM (inactive) | – | 13.7 µM (inactive)
CC(C)[C@H](NC(=O)[C@H](N)Cc1ccc(N(CCCl)CCCl)cc1)C(=O)O | > 100 µM (inactive) | > 100 µM (inactive) | > 100 µM (inactive) | > 100 µM (inactive) | > 100 µM (inactive) | > 100 µM (inactive) | > 100 µM (inactive) | > 100 µM (inactive) | > 100 µM (inactive) | > 100 µM (inactive) | > 100 µM (inactive) | 29.3 µM (inactive) | > 100 µM (inactive) | > 100 µM (inactive) | > 100 µM (inactive) | > 100 µM (inactive) | > 100 µM (inactive) | > 100 µM (inactive) | > 100 µM (inactive) | –
CCOC(=O)c1c(C)n(-c2ccc(Cl)cc2)c2c1cc(O)c1[nH]c3c(c12)CCCC3 | 19.5 µM (inactive) | 65.2 µM (inactive) | 35.7 µM (inactive) | 27.1 µM (inactive) | > 100 µM (inactive) | 46.3 µM (inactive) | > 100 µM (inactive) | 24.9 µM (inactive) | 47 µM (inactive) | 41.3 µM (inactive) | 29 µM (inactive) | 26.4 µM (inactive) | 50.5 µM (inactive) | 41 µM (inactive) | 22.5 µM (inactive) | > 100 µM (inactive) | 33.9 µM (inactive) | 21.6 µM (inactive) | > 100 µM (inactive) | –
COc1ccccc1NC(=O)C(CC(C(=O)Nc1ccccc1OC)/C(C)=N/Nc1ccc([N+](=O)[O-])cc1[N+](=O)[O-])/C(C)=N/Nc1ccc([N+](=O)[O-])cc1[N+](=O)[O-] (stereo unspecified) | – | > 100 µM (inactive) | – | > 100 µM (inactive) | 41 µM (inactive) | > 100 µM (inactive) | > 100 µM (inactive) | – | > 72.3 µM (inactive) | > 65.9 µM (inactive) | 58.5 µM (inactive) | 1.7 µM (inactive) | > 84.9 µM (inactive) | – | – | > 65.5 µM (inactive) | 63.1 µM (inactive) | 31.6 µM (inactive) | – | 32.4 µM (inactive)
COc1cc(C)c2c(c1C)OC(=O)c1c(C)c(Cl)c(O)c(C=O)c1O2 | – | 21.8 µM (inactive) | – | 15.7 µM (inactive) | 52.2 µM (inactive) | 19.1 µM (inactive) | 10.4 µM (inactive) | – | 20 µM (inactive) | 18.5 µM (inactive) | 15.4 µM (inactive) | 9.79 µM (inactive) | 9.66 µM (inactive) | – | – | 12.8 µM (inactive) | 14 µM (inactive) | 60.1 µM (inactive) | – | 13.9 µM (inactive)
CC(C)N(CCCNc1c2ccccc2nc2cccc([N+](=O)[O-])c12)C(C)C | 0.0153 µM (active) | < 0.0165 µM (active) | 0.0131 µM (active) | 0.0358 µM (active) | < 0.0418 µM (active) | < 0.0224 µM (active) | < 0.0179 µM (active) | < 0.0125 µM (active) | < 0.0231 µM (active) | 0.0195 µM (active) | < 0.0188 µM (active) | < 0.0134 µM (active) | < 0.0224 µM (active) | < 0.0203 µM (active) | < 0.0257 µM (active) | < 0.0104 µM (active) | < 0.01 µM (active) | < 0.01 µM (active) | 0.986 µM (active) | –
O=[N+]([O-])c1ccc(O)c(/C=N/c2nc(-c3ccccc3)cs2)c1 | 20.8 µM (inactive) | 34.8 µM (inactive) | 27.5 µM (inactive) | 4.67 µM (inactive) | 77.6 µM (inactive) | 29 µM (inactive) | 34.2 µM (inactive) | 35.5 µM (inactive) | 45.9 µM (inactive) | 2.4 µM (inactive) | 37.5 µM (inactive) | 17.9 µM (inactive) | 27.9 µM (inactive) | 33.3 µM (inactive) | 25.8 µM (inactive) | 38.5 µM (inactive) | 8.95 µM (inactive) | 13.2 µM (inactive) | 29.7 µM (inactive) | –
